Test results reported in article PMC2954059 (Journal of medicinal chemistry, 2010).
Read-outs that look alike come from different tables or passages of the source. Marks after values point to notes of the source that are not given here. One block for each molecule: values may come before it.

What was measured:
[1] = Concentrations of 1 in mouse serum and tissue samples by LC-MS/MS; assay type: in vivo, C57BL/6 mice
[2] = assay type: in vivo, C57BL/6 mice; settings: 24 mg/kg subcutaneous; for Concentration in the mouse brain: N = 3; for Concentration observed in brain, in molar terms: mouse brain, the quantified mouse (4a 8 h, 4d 2 h)
[3] = target: T1, Calpain I from porcine erythrocytes (Sus scrofa, UniProt P35750); assay: Calpain I inhibition, fluorogenic Suc-Leu-Tyr-AMC assay, Ki by Dixon plots
T1 sequence (P35750 1-714): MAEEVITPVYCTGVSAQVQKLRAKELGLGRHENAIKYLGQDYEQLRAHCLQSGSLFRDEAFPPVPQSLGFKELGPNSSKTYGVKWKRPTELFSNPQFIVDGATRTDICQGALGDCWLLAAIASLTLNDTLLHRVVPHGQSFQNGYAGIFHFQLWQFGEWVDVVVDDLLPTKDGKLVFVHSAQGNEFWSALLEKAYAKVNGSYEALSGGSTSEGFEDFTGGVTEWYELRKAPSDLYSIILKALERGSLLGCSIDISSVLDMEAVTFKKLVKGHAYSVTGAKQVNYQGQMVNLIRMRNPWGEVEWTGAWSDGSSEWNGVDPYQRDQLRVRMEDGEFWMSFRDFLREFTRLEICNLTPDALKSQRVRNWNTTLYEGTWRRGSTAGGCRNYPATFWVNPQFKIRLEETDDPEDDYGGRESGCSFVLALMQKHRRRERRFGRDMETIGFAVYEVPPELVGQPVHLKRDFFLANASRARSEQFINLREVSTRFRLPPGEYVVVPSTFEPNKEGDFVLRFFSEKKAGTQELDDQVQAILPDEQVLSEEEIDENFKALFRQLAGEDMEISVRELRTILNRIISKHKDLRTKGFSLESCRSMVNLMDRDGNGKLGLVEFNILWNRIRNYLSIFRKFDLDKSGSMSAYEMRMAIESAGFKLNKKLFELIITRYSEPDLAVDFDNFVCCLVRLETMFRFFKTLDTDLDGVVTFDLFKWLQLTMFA
T1 sequence (P04574 1-266 partner): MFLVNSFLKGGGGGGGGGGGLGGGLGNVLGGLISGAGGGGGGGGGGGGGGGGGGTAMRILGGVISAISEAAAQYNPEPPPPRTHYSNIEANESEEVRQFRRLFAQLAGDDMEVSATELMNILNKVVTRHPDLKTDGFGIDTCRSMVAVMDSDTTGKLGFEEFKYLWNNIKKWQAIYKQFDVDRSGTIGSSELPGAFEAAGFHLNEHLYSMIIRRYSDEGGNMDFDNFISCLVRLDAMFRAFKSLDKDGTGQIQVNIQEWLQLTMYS

[4] = target: T2, calpain II from porcine kidney (Sus scrofa, UniProt A6YNL5); assay: Calpain II inhibition, fluorogenic Suc-Leu-Tyr-AMC assay, Ki by Dixon plots; assay type: biochemical; settings: selectivity calpain I over calpain II
T2 sequence (A6YNL5 20-700): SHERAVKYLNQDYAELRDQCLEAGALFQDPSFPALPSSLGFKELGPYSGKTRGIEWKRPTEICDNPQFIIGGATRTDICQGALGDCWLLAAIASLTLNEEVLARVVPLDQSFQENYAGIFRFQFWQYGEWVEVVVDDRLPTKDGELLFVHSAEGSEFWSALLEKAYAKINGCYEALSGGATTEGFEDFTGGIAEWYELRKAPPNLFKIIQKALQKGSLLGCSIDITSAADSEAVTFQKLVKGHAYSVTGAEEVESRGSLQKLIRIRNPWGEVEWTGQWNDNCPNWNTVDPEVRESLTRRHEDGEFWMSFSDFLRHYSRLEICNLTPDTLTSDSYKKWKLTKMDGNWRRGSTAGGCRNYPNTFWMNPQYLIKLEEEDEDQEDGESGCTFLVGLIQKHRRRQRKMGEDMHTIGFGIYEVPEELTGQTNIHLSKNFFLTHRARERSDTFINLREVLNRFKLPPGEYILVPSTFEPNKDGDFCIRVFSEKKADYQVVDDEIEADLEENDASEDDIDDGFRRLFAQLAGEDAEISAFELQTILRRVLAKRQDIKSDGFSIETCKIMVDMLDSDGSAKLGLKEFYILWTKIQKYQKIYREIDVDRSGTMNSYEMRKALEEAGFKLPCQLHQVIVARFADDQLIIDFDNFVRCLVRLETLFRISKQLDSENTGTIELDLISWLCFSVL
T2 sequence (P04574 1-266 partner): T1 sequence (P04574 1-266 partner)

[5] = target: Cathepsin B from human liver (Homo sapiens, UniProt P07858); assay: Cathepsin B inhibition, fluorogenic Cbz-Arg-Arg-AMC assay, Ki by Dixon plots; assay type: biochemical

concentration at 1 h ([1]; female, C57BL/6, mouse, liver, heart, kidney, spleen, other: subcutaneous or intravenous, 24 mg/kg): > 500 ng/g
Bioavailability via subcutaneous or oral administration ([1]; mice, 24 mg/kg): good
Detection in the brain ([1]; mice, 24 mg/kg subcutaneous, intravenous or oral): could not be detected
SMILES: CCC(NC(=O)[C@H](CC(C)C)NC(=O)OCc1ccccc1)C(=O)C(=O)NCCCN1CCOCC1 (stereo partly drawn) [Compound 1, Cbz-Leu-D,L-Abu-CONH-(CH2)3-morpholine]

Concentration in the mouse brain ([2]; 8 hour, numeric value from one mouse, other two NQ): 1.17 ± 0.01 ^b µg/g tissue
Concentration observed in brain, in molar terms [2]: approximately 2 µM
SMILES: CCC(NC(=O)[C@H](CC(C)C)NC(=O)OCc1ccccc1)C(=O)C(=O)NCCCn1cnc2c(N)ncnc21 (stereo partly drawn) [Compound 4a, 3-(Benzyloxycarbonyl-L-leucylamino)-N-(3-(6-amino-9H-purin-9-yl)propyl)-2-oxopentanamide]

fold less potent than the adenine derivatives [3]: 3- to 8 fold
SMILES: CCC(NC(=O)[C@H](CC(C)C)NC(=O)OCc1ccccc1)C(=O)C(=O)NCCCn1ccc(N)nc1=O (stereo partly drawn) [Compound 4c]

Concentration in the mouse brain ([2]; 1 hour): could be detected
Concentration in the mouse brain ([2]; 2 hour, numeric value from one mouse, other two NQ): 1.14 ± 0.02 ^b µg/g tissue
Concentration observed in brain, in molar terms [2]: approximately 2 µM
SMILES: CCC(NC(=O)[C@H](CC(C)C)NC(=O)OCc1ccccc1)C(=O)C(=O)NCCCN1CCN(C)CC1 (stereo partly drawn) [Compound 4d, 3-(Benzyloxycarbonyl-L-leucylamino)-N-(3-(4-methylpiperazin-1-yl)propyl)-2-oxopentanamide]

SMILES: COc1nc(N)c2ncn(CCCNC(=O)C(=O)C(Cc3ccccc3)NC(=O)[C@H](CC(C)C)NC(=O)OCc3ccccc3)c2n1 (stereo partly drawn) [Compound 5b, 3-(Benzyloxycarbonyl-L-leucylamino)-N-(3-(6-amino-2-methoxy-9H-purin-9-yl)propyl)-2-oxophenylbutanamide]
fold less potent on calpain II than on calpain I [4]: 5 fold

fold less potent than the adenine derivatives [3]: 3- to 8 fold
selectivity for calpain I and calpain II versus cathepsin B [5]: equally potent
SMILES: CC(C)C[C@H](NC(=O)OCc1ccccc1)C(=O)NC(Cc1ccccc1)C(=O)C(=O)NCCCn1ccc(N)nc1=O (stereo partly drawn) [Compound 5c]

selectivity for calpain I and calpain II versus cathepsin B [5]: good selectivity
SMILES: CC(C)C[C@H](NC(=O)OCc1ccccc1)C(=O)NC(Cc1ccccc1)C(=O)C(=O)NCCCN1CCN(C)CC1 (stereo partly drawn) [Compound 5d, 3-(Benzyloxycarbonyl-L-leucylamino)-N-(3-(4-methylpiperazin-1-yl)propyl)-2-oxophenylbutanamide]

SMILES: CC(C)C[C@H](NC(=O)OCc1ccccc1)C(=O)NC(Cc1ccccc1)C(=O)C(=O)NCCCN(C)C (stereo partly drawn) [Compound 5e, 3-(Benzyloxycarbonyl-L-leucylamino)-N-(3-(dimethylamino)propyl)-2-oxophenylbutanamide]
fold less potent on calpain II than on calpain I [4]: 3 fold
selectivity for calpain I and calpain II versus cathepsin B [5]: good selectivity
